Experimental data as given in publication PMC8330727, “Triglyceride-mimetic prodrugs of scutellarin enhance oral bioavailability by promoting intestinal lymphatic transport and avoiding first-pass metabolism” (Drug Delivery, 2021).
In brackets after ≈: the same amount, converted by molar mass. Where two headings read alike, the source gives them in different places. One block for each molecule: values may come before it.

Legend:
[1] = In vivo lymphatic transport in anesthetized mesenteric lymph duct-cannulated rats; set-up: species or system rat; conditions: scutellarin 25 mg/kg intragastric, anesthetized female rats
[2] = cited from earlier work
[3] = source not stated; cited from earlier work
[4] = set-up: method as in Marina Shamis and Shabat, 2003; Ma et al., 2015; conditions: Figure 2; ref Marina Shamis and Shabat, 2003; Ma et al., 2015; cited from earlier work
[5] = set-up: method as in Huang et al., 2005; conditions: rats; ref Huang et al., 2005; cited from earlier work
[6] = set-up: method as in Lu et al., 2010; conditions: humans, 60 mg of scutellarin taken orally; ref Lu et al., 2010; cited from earlier work
[7] = Oral bioavailability / pharmacokinetic study in conscious female S-D rats (plasma scutellarin by UHPLC-MS/MS); conditions: Sprague-Dawley (S-D), rat, in vivo
Experimental: Scutellarin exposure after oral administration of scutellarin and prodrugs was detected in conscious female S-D rats. The rats were fasted for 12 h before the experiment and divided into three groups (n = 5 each group) randomly: scutellarin solution (25 mg/kg), Scu-Me-C5-TG solution (62.5 mg/kg equivalent to Scu), Scu-Me-C5-βMe-TG solution (62.5 mg/kg equivalent to Scu). Blood samples (0.5 mL) were collected from 5 min before administration to up to 24 h post-dosing and centrifuged at 16,000 rpm for 15 min to separate plasma. 100 μL plasma was added into 900 μL methanol and vortexed for 5 min, then centrifuged at 16,000 rpm for 15 min. The supernatant was sampled and used for UHPLC-MS/MS detection. The pharmacokinetic parameters were calculated by DAS 2.0 software.

Compound: O=C(O)[C@H]1O[C@@H](Oc2cc3oc(-c4ccc(O)cc4)cc(=O)c3c(O)c2O)[C@H](O)[C@@H](O)[C@@H]1O [Scutellarin]
drug in collected mesenteric lymph (mass spectrometry) [1]: failed to reach the limit of quantification
Log P ([2]; source not stated): −2.56
pKa [3]: 3-5
water solubility [4]: 0.02 mg/mL (≈ 43.3 µM)
oral bioavailability [5]: 10.6%
Plasma Cmax [6]: < 5.0 ng/mL

Compound: CC[C@@]1(O)C(=O)OCc2c1cc1n(c2=O)Cc2cc3c(CN(C)C)c(O)ccc3nc2-1 [Topotecan]
Log P ([2]; ref Wang et al., 2017): 0.8

F rel [7]: 223.8%
maximum plasma concentration (Cmax), fold of the parent drug [7]: 1.72 fold
relative oral bioavailability (Frel), fold of scutellarin [7]: 2.24 fold
Compound: CCCCCCCCCCCCCCCC(=O)OCC(COC(=O)CCCCCCCCCCCCCCC)OC(=O)CCCC(=O)Oc1ccc(-c2cc(=O)c3c(O)c(O)c(O[C@@H]4O[C@H](C(=O)OC)[C@@H](O)[C@H](O)[C@H]4O)cc3o2)cc1 [Scu-Me-C5-TG, 1,3-bis(palmitoyloxy)propan-2-yl (4-(5,6-dihydroxy-4-oxo-7-(((2S,3R,4S,5S,6S)-3,4,5-trihydroxy-6-(methoxycarbonyl)tetrahydro-2H-pyran-2-yl)oxy)-4H-chromen-2-yl)phenyl) glutarate]

F rel [7]: 245.2%
maximum plasma concentration (Cmax), fold of the parent drug [7]: 2.11 fold
relative oral bioavailability (Frel), fold of scutellarin [7]: 2.45 fold
Compound: CCCCCCCCCCCCCCCC(=O)OCC(COC(=O)CCCCCCCCCCCCCCC)OC(=O)CC(C)CC(=O)Oc1ccc(-c2cc(=O)c3c(O)c(O)c(O[C@@H]4O[C@H](C(=O)OC)[C@@H](O)[C@H](O)[C@H]4O)cc3o2)cc1 (stereo partly shown) [Scu-Me-C5-βMe-TG]
